# Legend:
# Assay type in all cases: functional
# Haemophilus influenzae [1] = assay: Antibacterial activity against ROB-1 producing ICE- negative Haemophilus influenzae Rd transformant harboring plasmid PB1000 by broth microdilution method
# Haemophilus influenzae [2] = assay: Antibacterial activity against ROB-1 producing ICE- positive Haemophilus influenzae F45 harboring D350N, V547I and N569S mutations in PBP3 by Etest method
# Haemophilus influenzae [3] = assay: Antibacterial activity against ROB-1 producing ICE- positive Haemophilus influenzae F45 harboring D350N, V547I and N569S mutations in PBP3 by broth microdilution method
# Haemophilus influenzae [4] = assay: Antibacterial activity against ROB-1 and TEM-1 producing ICE- positive Haemophilus influenzae F52 by Etest method
# Haemophilus influenzae [5] = assay: Antibacterial activity against ROB-1 producing ICE- negative Haemophilus influenzae F41 by broth microdilution method
# Haemophilus influenzae [6] = assay: Antibacterial activity against ROB-1 producing ICE- negative Haemophilus influenzae F50 by broth microdilution method
# Haemophilus influenzae [7] = assay: Antibacterial activity against ROB-1 producing ICE- positive Haemophilus influenzae F54 harboring V489G, M503R, R517H, V547I and N569S mutations in PBP3 by broth microdilution method
# Haemophilus influenzae [8] = assay: Antibacterial activity against […] by Etest method
# Haemophilus influenzae [9] = assay: Antibacterial activity against […] by broth microdilution method
# Haemophilus influenzae [10] = assay: Antibacterial activity against ROB-1 and TEM-1 producing ICE- positive Haemophilus influenzae F47 by Etest method
# Haemophilus influenzae [11] = assay: Antibacterial activity against ROB-1 producing ICE- negative Haemophilus influenzae F3 by broth microdilution method
# Haemophilus influenzae [12] = assay: Antibacterial activity against ROB-1 producing ICE- negative Haemophilus influenzae H23 by Etest method
# Haemophilus influenzae [13] = assay: Antibacterial activity against ROB-1 and TEM-1 producing ICE- positive Haemophilus influenzae F48 by Etest method
# Haemophilus influenzae [14] = assay: Antibacterial activity against ROB-1 producing ICE- positive Haemophilus influenzae F48 by broth microdilution method
# Haemophilus influenzae [15] = assay: Antibacterial activity against ROB-1 producing ICE- negative Haemophilus influenzae H23 by broth microdilution method
# Haemophilus influenzae [16] = assay: Antibacterial activity against ROB-1 and TEM-1 producing ICE- positive Haemophilus influenzae F49 harboring D350N, V547I and N569S mutations in PBP3 by Etest method
# Haemophilus influenzae [17] = assay: Antibacterial activity against ROB-1 and TEM-1 producing ICE- positive Haemophilus influenzae F54 harboring V489G, M503R, R517H, V547I and N569S mutations in PBP3 by Etest method
# Haemophilus influenzae [18] = assay: Antibacterial activity against ROB-1 producing ICE- negative Haemophilus influenzae F50 by Etest method
# Haemophilus influenzae [19] = assay: Antibacterial activity against ROB-1 producing ICE- positive Haemophilus influenzae F49 harboring D350N, V547I and N569S mutations in PBP3 by broth microdilution method
# Haemophilus influenzae [20] = assay: Antibacterial activity against ROB-1 producing ICE- negative Haemophilus influenzae F41 by Etest method
# Haemophilus influenzae [21] = assay: Antibacterial activity against ROB-1 producing ICE- positive Haemophilus influenzae F47 by broth microdilution method
# Haemophilus influenzae [22] = assay: Antibacterial activity against ROB-1 producing ICE- negative Haemophilus influenzae F3 by Etest method
# Haemophilus influenzae [23] = assay: Antibacterial activity against ROB-1 producing ICE- positive Haemophilus influenzae F52 by broth microdilution method
# Haemophilus influenzae [24] = assay: Antibacterial activity against ROB-1 producing ICE- negative Haemophilus influenzae Rd transformant harboring plasmid PB1000 by Etest method
# Haemophilus influenzae [25] = assay: Antibacterial activity against ROB-1 producing ICE- negative Haemophilus influenzae H62 by Etest method
# Haemophilus influenzae [26] = assay: Antibacterial activity against ROB-1 producing ICE- negative Haemophilus influenzae H62 by broth microdilution method
smiles,measurement,setting,value
N[C@@H](C(=O)N[C@@H]1C(=O)N2C(C(=O)O)=C(Cl)CS[C@H]12)c1ccccc1 [CEFACLOR ANHYDROUS],MIC,Haemophilus influenzae [1],32 µg/mL
same,MIC,Haemophilus influenzae [2],24 µg/mL
same,MIC,Haemophilus influenzae [3],64 µg/mL
same,MIC,Haemophilus influenzae [4],6 µg/mL
same,MIC,Haemophilus influenzae [5],32 µg/mL
same,MIC,Haemophilus influenzae [6],16 µg/mL
same,MIC,Haemophilus influenzae [7],64 µg/mL
same,MIC,Haemophilus influenzae [8],0.5 µg/mL
same,MIC,Haemophilus influenzae [9],1 µg/mL
same,MIC,Haemophilus influenzae [10],4 µg/mL
same,MIC,Haemophilus influenzae [11],16 µg/mL
same,MIC,Haemophilus influenzae [12],2 µg/mL
same,MIC,Haemophilus influenzae [13],6 µg/mL
same,MIC,Haemophilus influenzae [14],16 µg/mL
same,MIC,Haemophilus influenzae [15],16 µg/mL
same,MIC,Haemophilus influenzae [16],16 µg/mL
same,MIC,Haemophilus influenzae [17],32 µg/mL
same,MIC,Haemophilus influenzae [18],2 µg/mL
same,MIC,Haemophilus influenzae [19],64 µg/mL
same,MIC,Haemophilus influenzae [20],4 µg/mL
same,MIC,Haemophilus influenzae [21],32 µg/mL
same,MIC,Haemophilus influenzae [22],4 µg/mL
same,MIC,Haemophilus influenzae [23],16 µg/mL
same,MIC,Haemophilus influenzae [24],4 µg/mL
same,MIC,Haemophilus influenzae [25],6 µg/mL
same,MIC,Haemophilus influenzae [26],32 µg/mL
